From patent publication US20240382483A1, “HETEROCYCLIC EGFR INHIBITORS FOR USE IN THE TREATMENT OF CANCER” (Blueprint Medicines Corporation, priority 2021, published 2024)

What was measured:
EGFR (L858R T790M C797S) = biological target: T1, EGFR (L858R T790M C797S) (Homo sapiens, UniProt P00533, C797S/L858R/T790M); test: Biochemical EGFR inhibition assay (Caliper mobility shift), EGFR LRTMCS; settings: LRTMCS (PH) IC50 (nM) @ 1 mM ATP (Num), EGFR LRTMCS mutant
T1 construct: purchased SignalChem E10-122VG
T1 sequence (P00533 25-1210 T790M/C797S/L858R): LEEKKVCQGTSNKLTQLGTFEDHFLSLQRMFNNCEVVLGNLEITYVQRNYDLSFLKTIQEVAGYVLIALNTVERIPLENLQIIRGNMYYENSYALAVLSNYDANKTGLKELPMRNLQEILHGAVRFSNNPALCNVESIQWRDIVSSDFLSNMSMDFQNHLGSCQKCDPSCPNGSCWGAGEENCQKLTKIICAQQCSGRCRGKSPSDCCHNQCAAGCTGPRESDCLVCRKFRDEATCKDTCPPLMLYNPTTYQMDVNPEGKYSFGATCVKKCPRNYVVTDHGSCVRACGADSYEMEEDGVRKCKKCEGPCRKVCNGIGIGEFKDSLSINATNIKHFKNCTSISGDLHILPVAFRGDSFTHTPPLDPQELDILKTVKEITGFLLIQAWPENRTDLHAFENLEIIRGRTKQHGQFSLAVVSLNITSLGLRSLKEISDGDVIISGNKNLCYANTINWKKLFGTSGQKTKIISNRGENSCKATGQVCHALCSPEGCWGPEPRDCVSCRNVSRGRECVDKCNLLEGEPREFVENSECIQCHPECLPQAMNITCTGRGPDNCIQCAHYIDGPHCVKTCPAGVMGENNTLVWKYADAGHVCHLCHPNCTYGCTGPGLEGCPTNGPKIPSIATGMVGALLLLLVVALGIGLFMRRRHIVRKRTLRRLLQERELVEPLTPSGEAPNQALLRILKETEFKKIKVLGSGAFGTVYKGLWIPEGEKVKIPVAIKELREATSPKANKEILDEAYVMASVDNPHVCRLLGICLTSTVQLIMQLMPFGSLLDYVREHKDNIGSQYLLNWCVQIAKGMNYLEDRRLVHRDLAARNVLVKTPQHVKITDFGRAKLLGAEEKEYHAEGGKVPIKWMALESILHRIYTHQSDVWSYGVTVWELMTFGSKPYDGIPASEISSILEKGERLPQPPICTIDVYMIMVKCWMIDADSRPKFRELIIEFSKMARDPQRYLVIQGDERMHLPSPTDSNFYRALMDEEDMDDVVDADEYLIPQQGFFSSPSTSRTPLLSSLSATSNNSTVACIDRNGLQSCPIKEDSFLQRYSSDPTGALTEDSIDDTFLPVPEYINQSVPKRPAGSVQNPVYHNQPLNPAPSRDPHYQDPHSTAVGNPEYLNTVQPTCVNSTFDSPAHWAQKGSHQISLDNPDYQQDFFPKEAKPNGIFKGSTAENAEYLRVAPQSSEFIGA
Experimental: Reactions proceeded until between 10% to 20% total peptides were phosphorylated at room temperature (25° C.) and were terminated with 35 mM 2,2′,2″,2′″-(ethane-1,2-diyldinitrilo)tetraacetic acid (EDTA). Product was detected using the Caliper mobility shift detection method where the phosphorylated peptide (product) and substrate were electrophoretically separated and measured. Percent activity was plotted against log concentration of compound and points to generate an apparent IC50.

[1] = biological target: T2, intracellular phosphorylation of EGFR in NCI-H1975 cell line that harbors the EGFR L858R T790M mutations (Homo sapiens, UniProt P00533, L858R/T790M); test: NCI-H1975 pEGFR AlphaLISA assay; format: cell-based; settings: NCI-H1975 cells (EGFR L858R T790M), p-EGFR (Tyr1068), 4-5 hours incubation; read-out: Ext pEGFR H1975 GMean IC50 (nM) Protocol: @Pharmaron AlphaLISA (Num)
T2 construct: NCI-H1975 cell line that harbors the EGFR L858R T790M mutations (ATCC, CRL-5908); host or cells: NCI-H1975
T2 sequence (P00533 25-1210 T790M/L858R): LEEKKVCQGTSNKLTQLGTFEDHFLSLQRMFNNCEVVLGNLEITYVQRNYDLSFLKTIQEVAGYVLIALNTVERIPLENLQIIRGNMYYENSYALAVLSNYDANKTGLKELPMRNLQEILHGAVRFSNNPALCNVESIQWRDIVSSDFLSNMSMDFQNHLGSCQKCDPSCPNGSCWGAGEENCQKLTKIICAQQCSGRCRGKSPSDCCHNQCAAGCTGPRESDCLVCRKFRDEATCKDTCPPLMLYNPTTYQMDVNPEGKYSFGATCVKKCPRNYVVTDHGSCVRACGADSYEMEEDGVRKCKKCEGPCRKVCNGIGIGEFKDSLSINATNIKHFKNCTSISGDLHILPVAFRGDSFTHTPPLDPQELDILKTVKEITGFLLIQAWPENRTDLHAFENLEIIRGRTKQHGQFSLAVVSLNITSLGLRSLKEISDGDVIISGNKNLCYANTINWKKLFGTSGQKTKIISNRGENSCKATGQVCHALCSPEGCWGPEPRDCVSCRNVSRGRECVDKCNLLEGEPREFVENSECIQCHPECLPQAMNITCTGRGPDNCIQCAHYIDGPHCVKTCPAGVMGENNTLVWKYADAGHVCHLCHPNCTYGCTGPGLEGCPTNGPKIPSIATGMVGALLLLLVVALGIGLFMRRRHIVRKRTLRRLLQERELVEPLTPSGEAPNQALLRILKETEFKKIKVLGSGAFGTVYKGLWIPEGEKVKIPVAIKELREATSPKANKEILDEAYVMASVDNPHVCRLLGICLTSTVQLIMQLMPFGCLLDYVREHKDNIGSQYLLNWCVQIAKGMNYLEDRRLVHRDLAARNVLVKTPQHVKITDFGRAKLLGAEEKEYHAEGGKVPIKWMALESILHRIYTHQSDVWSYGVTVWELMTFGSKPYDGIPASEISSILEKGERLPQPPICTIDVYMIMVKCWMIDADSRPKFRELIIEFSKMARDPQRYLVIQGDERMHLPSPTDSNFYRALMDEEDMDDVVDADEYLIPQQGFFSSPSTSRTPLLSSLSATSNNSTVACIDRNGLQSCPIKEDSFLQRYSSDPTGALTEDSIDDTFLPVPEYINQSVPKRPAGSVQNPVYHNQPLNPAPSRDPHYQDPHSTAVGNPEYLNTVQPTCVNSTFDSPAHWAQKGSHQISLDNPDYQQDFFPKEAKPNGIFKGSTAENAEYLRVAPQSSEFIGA
Experimental: On the next day, the test compounds and DMSO control were added into H1975 cell plate followed by incubation at 37C/5% CO2 for 4-5 hours. […] Then 5 μL of a donor bead mix was added to each well followed by overnight incubation at room temperature in dark. On the next day, the plate was read at a compatible plate reader to obtain pEGFR signal. Percent of pEGFR inhibition was plotted against log concentration of compounds to generate IC50 values.

| Structure (SMILES) | IC50 (EGFR (L858R T790M C797S)) [nM] | IC50 [1] [nM] |
| --- | --- | --- |
| CC(C)c1cnc(N2CC3(CCS3(=O)=O)C2)c2cnc(Nc3ccnc(N4CC[C@@H](O)[C@@](C)(F)C4)n3)cc12 [Example 98, 6-(6-((2-((3S,4R)-3-fluoro-4-hydroxy-3-methylpiperidin-1-yl)pyrimidin-4-yl)amino)-4-isopropyl-2,7-naphthyridin-1-yl)-1-thia-6-azaspiro[3.3]heptane 1,1-dioxide] | < 15 | 10 to 20 |
| CC(C)c1ncc(-c2ccn(C)n2)c2cnc(Nc3ccnc(N4CC[C@@H](O)[C@@](C)(F)C4)n3)cc12 [Example 11, (3S,4R)-3-fluoro-1-(4-((5-isopropyl-8-(1-methyl-1H-pyrazol-3-yl)-2,6-naphthyridin-3-yl)amino)pyrimidin-2-yl)-3-methylpiperidin-4-ol] | 20 to 30 | 30 to 50 |
| CC(C)c1cnc(N2CC[C@H]2CO)c2cnc(Nc3ccnc(N4CC[C@@H](O)[C@@](C)(F)C4)n3)cc12 [Example 52, (3S,4R)-3-fluoro-1-(4-((8-((S)-2-(hydroxymethyl)azetidin-1-yl)-5-isopropyl-2,7-naphthyridin-3-yl)amino)pyrimidin-2-yl)-3-methylpiperidin-4-ol] | < 15 | < 10 |
| CO[C@H]1CCN(c2nccc(Nc3cc4c(C(C)C)cnc(N5CCC56CN(C)C6)c4cn3)n2)C[C@H]1F [Example 42, N-(2-((3R,4S)-3-fluoro-4-methoxypiperidin-1-yl)pyrimidin-4-yl)-5-isopropyl-8-(6-methyl-1,6-diazaspiro[3.3]heptan-1-yl)-2,7-naphthyridin-3-amine] | 20 to 30 | > 50 |
| Cc1nc(-c2cnc(C(C)C)c3cc(Nc4ccnc(N5CC[C@@H](O)[C@@](C)(F)C5)n4)ncc23)no1 [Example 8, (3S,4R)-3-fluoro-1-(4-((5-isopropyl-8-(5-methyl-1,2,4-oxadiazol-3-yl)-2,6-naphthyridin-3-yl)amino)pyrimidin-2-yl)-3-methylpiperidin-4-ol] | 20 to 30 | > 50 |
| CC(C)c1cnc(N2CC3(C2)CC3(F)F)c2cnc(Nc3ccnc(N4CC[C@@H](O)[C@@](C)(F)C4)n3)cc12 [Example 59, (3S,4R)-1-(4-((8-(1,1-difluoro-5-azaspiro[2.3]hexan-5-yl)-5-isopropyl-2,7-naphthyridin-3-yl)amino)pyrimidin-2-yl)-3-fluoro-3-methylpiperidin-4-ol] | < 15 | 10 to 20 |
| CC(C)c1cnc(N2CC[C@H](S(C)(=O)=O)C2)c2cnc(Nc3ccnc(N4CC[C@@H](O)[C@@](C)(F)C4)n3)cc12 [Example 75, (3S,4R)-3-fluoro-1-(4-((5-isopropyl-8-((S)-3-(methylsulfonyl)pyrrolidin-1-yl)-2,7-naphthyridin-3-yl)amino)pyrimidin-2-yl)-3-methylpiperidin-4-ol] | 15 to 20 | 10 to 20 |
| CC(C)c1ccc(N2CC(c3nnco3)C2)c2cnc(Nc3ccnc(N4CC[C@@H](O)[C@@](C)(F)C4)n3)cc12 [Example 111, (3S,4R)-1-(4-((8-(3-(1,3,4-oxadiazol-2-yl)azetidin-1-yl)-5-isopropylisoquinolin-3-yl)amino)pyrimidin-2-yl)-3-fluoro-3-methylpiperidin-4-ol] | < 15 | < 10 |
| COCCN1CC2(CCN2c2ncc(C(C)C)c3cc(Nc4ccnc(N5CC[C@@H](O)[C@@](C)(F)C5)n4)ncc23)C1 [Example 64, (3S,4R)-3-fluoro-1-(4-((5-isopropyl-8-(6-(2-methoxyethyl)-1,6-diazaspiro[3.3]heptan-1-yl)-2,7-naphthyridin-3-yl)amino)pyrimidin-2-yl)-3-methylpiperidin-4-ol] | < 15 | 30 to 50 |
| CC(C)c1ncc(-c2cn(C)nn2)c2cnc(Nc3ccnc(N4CC[C@@H](O)[C@@](C)(F)C4)n3)cc12 [Example 12, (3S,4R)-3-fluoro-1-(4-((5-isopropyl-8-(1-methyl-1H-1,2,3-triazol-4-yl)-2,6-naphthyridin-3-yl)amino)pyrimidin-2-yl)-3-methylpiperidin-4-ol] | < 15 | 10 to 20 |
| CC(C)c1cnc(N2CC(CC(=O)N(C)C)C2)c2cnc(Nc3ccnc(N4CC[C@@H](O)[C@@](C)(F)C4)n3)cc12 [Example 86, 2-(1-(6-((2-((3S,4R)-3-fluoro-4-hydroxy-3-methylpiperidin-1-yl)pyrimidin-4-yl)amino)-4-isopropyl-2,7-naphthyridin-1-yl)azetidin-3-yl)-N,N-dimethylacetamide] | 20 to 30 | 30 to 50 |
| CC(C)c1cnc(N2CC(O)(CC#N)C2)c2cnc(Nc3ccnc(N4CC[C@@H](O)[C@@](C)(F)C4)n3)cc12 [Example 72, 2-(1-(6-((2-((3S,4R)-3-fluoro-4-hydroxy-3-methylpiperidin-1-yl)pyrimidin-4-yl)amino)-4-isopropyl-2,7-naphthyridin-1-yl)-3-hydroxyazetidin-3-yl)acetonitrile] | 15 to 20 | > 50 |
| CC(C)c1ccc(N2CC(n3ccnn3)C2)c2cnc(Nc3ccnc(N4CC[C@@H](O)[C@@](C)(F)C4)n3)cc12 [Example 38, (3S,4R)-1-(4-((8-(3-(1H-1,2,3-triazol-1-yl)azetidin-1-yl)-5-isopropylisoquinolin-3-yl)amino)pyrimidin-2-yl)-3-fluoro-3-methylpiperidin-4-ol] | < 15 | < 10 |
| CC(C)c1cnc(N2CC(N=S(C)(C)=O)C2)c2cnc(Nc3ccnc(N4CC[C@@H](O)[C@@](C)(F)C4)n3)cc12 [Example 94, ((1-(6-((2-((3S,4R)-3-fluoro-4-hydroxy-3-methylpiperidin-1-yl)pyrimidin-4-yl)amino)-4-isopropyl-2,7-naphthyridin-1-yl)azetidin-3-yl)imino)dimethyl-l6-sulfanone] | < 15 | 20 to 30 |

Second part, the compound after the results:

| IC50 (EGFR (L858R T790M C797S)) [nM] | IC50 [1] [nM] | Structure (SMILES) |
| --- | --- | --- |
| < 15 | 30 to 50 | CO[C@@H]1CCN(c2nccc(Nc3cc4c(C(C)C)cnc(N5CC6(CCS6(=O)=O)C5)c4cn3)n2)C[C@@H]1O (single isomer, unassigned) [Example 124, 6-(6-((2-((3S,4R)-3-hydroxy-4-methoxypiperidin-1-yl)pyrimidin-4-yl)amino)-4-isopropyl-2,7-naphthyridin-1-yl)-1-thia-6-azaspiro[3.3]heptane 1,1-dioxide or 6-(6-((2-((3R,4S)-3-hydroxy-4-methoxypiperidin-1-yl)pyrimidin-4-yl)amino)-4-isopropyl-2,7-naphthyridin-1-yl)-1-thia-6-azaspiro[3.3]heptane 1,1-dioxide] |
| < 15 | < 10 | CO[C@@H]1CCN(c2nccc(Nc3cc4c(C(C)C)cnc(N5C[C@H](OCCO)[C@H]5C)c4cn3)n2)C[C@@H]1F [Example 148, 2-(((2R,3S)-1-(6-((2-((3S,4R)-3-fluoro-4-methoxypiperidin-1-yl)pyrimidin-4-yl)amino)-4-isopropyl-2,7-naphthyridin-1-yl)-2-methylazetidin-3-yl)oxy)ethan-1-ol] |
| 20 to 30 | 30 to 50 | CC(C)c1ncc(N2CCC23CN(C)C3)c2cnc(Nc3ccnc(N4CC[C@@H](O)[C@@](C)(F)C4)n3)cc12 [Example 195, (3S,4R)-3-fluoro-1-(4-((5-isopropyl-8-(6-methyl-1,6-diazaspiro[3.3]heptan-1-yl)-2,6-naphthyridin-3-yl)amino)pyrimidin-2-yl)-3-methylpiperidin-4-ol] |
| < 15 | > 50 | CC(C)c1cnc(N2CCC23CN(C)C3)c2cnc(Nc3ccnc(N4CC[C@@]5(CCO5)C(F)(F)C4)n3)cc12 (single isomer, unassigned) [Example 194, (R)—N-(2-(5,5-difluoro-1-oxa-7-azaspiro[3.5]nonan-7-yl)pyrimidin-4-yl)-5-isopropyl-8-(6-methyl-1,6-diazaspiro[3.3]heptan-1-yl)-2,7-naphthyridin-3-amine or (S)—N-(2-(5,5-difluoro-1-oxa-7-azaspiro[3.5]nonan-7-yl)pyrimidin-4-yl)-5-isopropyl-8-(6-methyl-1,6-diazaspiro[3.3]heptan-1-yl)-2,7-naphthyridin-3-amine] |
| < 15 | 20 to 30 | CO[C@H]1CCN(c2nccc(Nc3cc4c(C(C)C)cnc(N5CC[C@H]5CN)c4cn3)n2)C[C@H]1F [Example 165, 8-((S)-2-(aminomethyl)azetidin-1-yl)-N-(2-((3R,4S)-3-fluoro-4-methoxypiperidin-1-yl)pyrimidin-4-yl)-5-isopropyl-2,7-naphthyridin-3-amine] |
| < 15 | 30 to 50 | C[C@@H]1CCN1c1ncc([C@@H]2CCOC2)c2cc(Nc3ccnc(N4CC[C@@H](O)[C@@H](F)C4)n3)ncc12 (single isomer, unassigned) [Example 162, (3S,4R)-3-fluoro-1-(4-((8-((R)-2-methylazetidin-1-yl)-5-((S)-tetrahydrofuran-3-yl)-2,7-naphthyridin-3-yl)amino)pyrimidin-2-yl)piperidin-4-ol or (3S,4R)-3-fluoro-1-(4-((8-((R)-2-methylazetidin-1-yl)-5-((R)-tetrahydrofuran-3-yl)-2,7-naphthyridin-3-yl)amino)pyrimidin-2-yl)piperidin-4-ol] |
